One test can be described thus: Binding to lipid A. Conditions: binding of lipid A; read-out: dissociation constant.
Test [1] in a line: Binding to simple sugars like glucosamine. Conditions: much lower affinity than for lipid A.

For “tetratryptophan ter-cyclopentane [TWTCP]”, the Kd was 0.592 µM in “Binding to lipid A” and about 20 µM in test [1].
